Assay results from ChEMBL document CHEMBL1145065, “Thalidomide metabolites and analogues. 3. Synthesis and antiangiogenic activity of the teratogenic and TNFalpha-modulatory thalidomide analogue 2-(2,6-dioxopiperidine-3-yl)phthalimidine” (2003).

Key:
Rattus norvegicus [1] = species on record: Rattus norvegicus; experiment: Inhibition of angiogenesis (new microvessel growth) in rat aortic ring model at 100 uM in Endothelial basal medium (EBM) and Dimethylsulfoxide (DMSO); assay type: functional; settings: Aorta
Rattus norvegicus [2] = species on record: Rattus norvegicus; experiment: Inhibition of angiogenesis (new microvessel growth) in rat aortic ring model at 200 uM in Endothelial basal medium (EBM) and Dimethylsulfoxide (DMSO); assay type: functional; settings: Aorta

O=C1CCC(N2Cc3ccccc3C2=O)C(=O)N1 (configuration not stated)
inhibition at 100 µM (Rattus norvegicus [1]): 30% | inhibition at 200 µM (Rattus norvegicus [2]): 30%
